Data reported in patent US20070172957A1, “Methods of identifying anti-inflammatory macrolides” (TAISHO PHARMACEUTICAL CO., LTD., priority 2004, published 2007).

What was measured:
[1] = tested on: tobacco smoke-induced pulmonary emphysema; experiment: Model mice with tobacco smoke-induced pulmonary emphysema; type: in vivo; conditions: for pulmonary alveolus size: 6 months, mean ± SE; for pulmonary emphysema rate: relative to non-smoking
Protocol: The model mice with tobacco smoke-induced pulmonary emphysema mimicking human pulmonary emphysema were constructed according to the method as described in Hautamaki, R. D. et al., Science 1997, 277: 2002-2004 or Shapiro, S. D. et al., Am. […] Specifically, C57black/6 female mice of 12-weeks old were exposed to tobacco smoke at two cigarettes per day, 6 days per week for 6 months.
(§1) Administration of clarithromycin was carried out orally at the rate of 25, 50 or 100 […] twice daily (morning and evening) during the tobacco smoke exposure period. The plasma AUC0-8 of clarithromycin obtained when 50 mg/kg was singly administered to the mice was 2.677 μg·hr/ml while the plasma AUC0-8 of clarithromycin obtained when 200 mg of clarithromycin was singly administered to a normal human subject was 8.98 μg·hr/ml. The former concentration was substantially lower than the latter one and was an adequate concentration to be used clinically.
The index of the improvement to the pulmonary emphysema condition followed the mothod as described in Hautamaki, R. D. et al., ibid. or Shapiro, S. D. et al., ibid.
Hematoxylin eosin-stained pathological specimens were prepared from the model mice and ten visual fields under a microscope were randomly selected, where the average sizes of pulmonary alveoli were measured. An increase in the average size of pulmonary alveolus is considered as an index of the destruction of pulmonary alveoli, i.e., the pulmonary emphysema condition.
The cell counts of inflammatory cells (microphages and neutrophiles) in the bronchoalveolar lavage fluids after six months' exposure were measured to provide an index of the inflammatory condition in the model mice with tobacco smoke-induced pulmonary emphysema.
It has been reported that as pulmonary emphysema progresses, pulmonary functions deteriorate. It has also been known that the pulmonary compliance, which is an index of pulmonary functions, increases in model mice with tobacco smoke-induced pulmonary emphysema. Thus, the pulmonary compliance was measured in the model mice with tobacco smoke-induced pulmonary emphysema after six months' exposure.

THP-1 cells = experiment: Microarray of differentially expressed genes in THP-1 cells, +/- LPS, +/- Clarithromycin or FMA9045 (Appendix B, Appendix F); type: cell-based; conditions: for Total # Differential Genes (95% confidence): THP-1, min fold change threshold 1.5 (Clari), 1.3 (FMA)
Text: (§2) The data for each cell line (A549 and THP-1) are presented in Appendices A and B. For each cell line, the data for all of the hybridizations are represented together in the same table. For each hybridization, there are two columns: the weighted mean ratio (wtd mean ratio) and the minimum fold change (min fold change). The “min fold change” represents the minimum change in expression that meets the 95% confidence threshold. It can be estimated from the log ratio and standard deviation, assuming that the uncertainty in the ratio is normally distributed. […] See also Cheng Li and Wing Hung Wong, “Model-based analysis of oligonucleotide arrays: model validation, design issues and standard error application,” Genome Biology 2001 2(8):research0032.1-0032.11 (published 3 Aug. 2001).
(§3) The analysis method to generate these tables was similar for A549 and THP-1, cells. […] It is important to note that the fold change threshold is an absolute number, and the direction of change (increased or decreased expression) must be determined by the looking at the weighted mean ratio. The significance threshold criteria are included in parentheses in each “min fold change” column. The weighted mean ratios representing significant differentials (95% confidence, p value <0.05) are in bold. The “Spot IDs” correspond to publicly available cDNA sequences for the region of the gene represented at that spot on the microarray chip.
(§4) For the A549 and THP-1 cell lines (Appendix A and B, respectively), the first table for each cell line (“total differentials”) represents all of the genes that show differential expression in at least one of the hybridizations. The second table for A549 and THP-1 cells (“drug effects, sum ≧4.5” and “drug effects, sum ≧5”, respectively) has an additional final column, “sum of min fold change.” This column represents the sum of the minimum fold changes for all of the groups except the stimulus alone. This column was used to rank the genes in order of the greatest global drug effect, independent of whether the drug used was Clarithromycin or FMA9045 and independent of stimulus effect.
For THP-1 cells, a sum min fold change ≧5.0 was used as the threshold for ranking the most highly regulated drug effects. In both tables in Appendix B, the genes that meet this criterion (sum ≧5) are in bold and in italics. A larger sum min fold change threshold was used for THP-1 cells, because the macrolide response in this cell line was more robust than that in A549 cells.
The influence of a macrolide compound on the level of expression of the gene of the material related to inflammatory disease of the lung is summarized in Appendix F. In Appendix F, ‘+/−Clari, wtd means’ denotes gene induction (suppression) when clarithromycin is added to THP-1 cells, and the larger the figure, the more the gene is expressed. Furthermore, ‘+LPS+/−Clari, wtd means’ denotes gene induction (suppression) when clarithromycin is added to LSP-stimulated THP-1 cells, and the smaller the figure, the more the gene expression is suppressed.

[2] = Plasma AUC of clarithromycin after single administration to a normal human subject; type: in vivo; conditions: 200 mg singly administered, read-out: plasma AUC0-8
Protocol: as §1

[3] = Plasma AUC of clarithromycin after single administration to mice; type: in vivo; conditions: C57black/6, mouse, oral, 50 mg/kg singly administered, read-out: plasma AUC0-8
Protocol: as §1

A549 cells = experiment: Microarray of differentially expressed genes in A549 cells, +/- IL-1β, +/- Clarithromycin or FMA9045 (Appendix A); type: cell-based; conditions: for Total # Differential Genes (95% confidence): A549, min fold change threshold 1.3
Text: as §2, §3, §4
As noted above, a sum min fold change ≧4.5 was used as the threshold for ranking the most highly regulated drug effects. In both tables in Appendix A, the genes that meet this criterion (sum ≧4.5) are in bold, and those genes that are bold and italics are the most highly regulated genes and have a min fold change ≧5.0.

For CC[C@H]1OC(=O)[C@H](C)[C@@H](O[C@H]2C[C@@](C)(OC)[C@@H](O)[C@H](C)O2)[C@H](C)[C@@H](O[C@@H]2O[C@H](C)C[C@H](N(C)C)[C@H]2O)[C@](C)(OC)C[C@@H](C)C(=O)[C@H](C)[C@@H](O)[C@]1(C)O [clarithromycin], the “cell count of macrophages in bronchoalveolar lavage fluids” value ([1]; after six months' exposure, FIG. 4A) was “reduced”, the “cell count of neutrophiles in bronchoalveolar lavage fluids” value ([1]; after six months' exposure, FIG. 4B) was “reduced” and the pulmonary compliance ([1]; after six months' exposure, FIG. 5) was “recovered”. The improvement factor ([1]; smoking + CAM 25 mg/kg) was 47%, the pulmonary alveolus size ([1]; smoking + CAM 25 mg/kg orally twice daily) was 35.60 ± 1.425 μm and the pulmonary emphysema rate ([1]; smoking + CAM 25 mg/kg) was 10.6%. For the same molecule, the improvement factor ([1]; smoking + CAM 50 mg/kg) was “up to 87%”, the pulmonary alveolus size ([1]; smoking + CAM 50 mg/kg orally twice daily) was 33.16 ± 0.890 μm and the improvement factor ([1]; smoking + CAM 50 mg/kg, listed as CAM) was 85%. The pulmonary emphysema rate ([1]; smoking + CAM 50 mg/kg) was 3%, the improvement factor ([1]; smoking + CAM 100 mg/kg) was 66.5% and the pulmonary alveolus size ([1]; smoking + CAM 100 mg/kg orally twice daily) was 34.35 ± 0.936 μm. For the same molecule, the pulmonary emphysema rate ([1]; smoking + CAM 100 mg/kg) was 6.7%, the “expression of SERPINB3 gene” value (THP-1 cells; Category 1, Appendix F) was “enhancing the expression” and the “Total # Differential Genes (95% confidence)” value (THP-1 cells; +/- drug alone) was 127. For the same molecule, the “Total # Differential Genes (95% confidence)” value (THP-1 cells; LPS +/- drug) was 120, the “LPS +/− clari, wtd mean ratio” value (THP-1 cells; THP-1 cells with LPS, gene given in each table row) was 0.9 and the “LPS +/− clari, wtd mean ratio” value (THP-1 cells; THP-1 cells, LPS stimulated, with vs without clari, gene/spot = table row) was 0.9. The “Clari treated, wtd mean ratio” value (THP-1 cells; THP-1 cells, no LPS, gene given in each table row) was 0.9, the “Clari treated, wtd mean ratio” value (THP-1 cells; THP-1 cells, microarray expression ratio, gene/spot = table row) was 0.9 and the “expression of proteinase genes (MMP12, MMP9, MMP19, cathepsin K, cathepsin C)” value (THP-1 cells; induced during inflammatory stimulation, Category 2) was “suppresses the expression”. The “expression of the chemokine gene” value (THP-1 cells; induced during inflammatory stimulation, Category 3) was “suppresses expression”, the AUC(0-t) [2] was 8980 ng·h/mL and the AUC(0-t) [3] was 2680 ng·h/mL. The “Total # Differential Genes (95% confidence)” value (A549 cells; +/- drug alone) was 117, the “Total # Differential Genes (95% confidence)” value (A549 cells; IL-1 +/- drug) was 127 and the “IL1b +/− clari, wtd mean ratio” value (A549 cells; A549 cells with IL1b stimulation, microarray expression ratio, gene = SpotID/GeneSymbol) was 0.9. The “Clari treated, wtd mean ratio” value (A549 cells; A549 cells, Clari treated, no IL1, expression ratio of the gene/spot of the table line) was 0.9, the “IL1b +/− clari, wtd mean ratio” value (A549 cells; A549 cells, IL1b stimulated, with vs without clari, gene/spot of the table line) was 0.9 and the “Clari treated, wtd mean ratio” value (A549 cells; A549 cells, microarray expression ratio, gene = SpotID/GeneSymbol) was 0.9. The “Clari treated, wtd mean ratio” value (A549 cells; A549 cells, per microarray spot/gene, Clari treated, no IL1) was 0.9 and the “IL1b +/− clari, wtd mean ratio” value (A549 cells; A549 cells, per microarray spot/gene, IL1b stimulated, with vs without clari) was 0.9.
